Test results published in PMC5823688 (Molecular pharmaceutics, 2017).

Experiments:
[1] = tested on: mitochondria of granta-519 tumor cells; assay: Cytochrome C release from mitochondria of tumor cells; assay type: cell-based; conditions: 10 μM peptide; in comparison to a positive 1% Triton X-100 control; Figure S4
3T3 fibroblasts = conditions: MTS; after 120 h of treatment
SKOV3 cells = conditions: 10 μM polymer, 72 h; FITC-annexin V, flow cytometry
[2] = tested on: SKOV3 human ovarian cancer cells; conditions: all polymer concentrations (0 to 10 μM), 96 h, MTS
[3] = tested on: caspase 3/7 activity in SKOV3 cells; conditions: 0-10 μM polymer, 72 h

Row | Substance | cytochrome C release [1] [%] | BIM-mediated cell death in 3T3 fibroblasts (3T3 fibroblasts) | cells staining positive for annexin V (SKOV3 cells) [%] | cell viability [2] | change in caspase 3/7 activity relative to untreated cultures [3]
1 | FLAhxMRPEI-WIAQELRRIGvDEFNAY [FLAhxBIM] | > 90 |  |  |  | 
2 | poly[(DEAEMA)-co-(BMA)]-b-[(PEGMA300)-c-(MaCath-BIM)] [PolCathBIM] |  | no BIM-mediated cell death was observed | 87 |  | 
3 | poly[(DEAEMA)-co-(BMA)]-b-[(PEGMA300)-c-(MaCathScrBIM)] [PolCathScrBIM] |  |  | 15 | greater than 90% | no change
